# Test results as given in USRE43615E1, “Method for controlling the yeast-to-filamentous growth transition in fungi” (priority 2007, dated 2012).
# Legend:
# [1] = test system: C. albicans conditional pseudohyphal mutant (grr1/grr1, MET3p-driven GRR1) yeast-to-pseudohypha transition; assay: Inhibition of yeast-to-pseudohypha transition in optical microplates, monitored by microscopy; assay type: cell-based, Candida albicans
# Text: (§1) A simple in vitro assay system was designed to detect inhibition of the yeast-to-filamentous growth transition in C. albicans. In this assay, C. albicans cells are first grown under conditions that maintain them in a yeast growth form. The yeast-form cells are then transferred to the wells of an optical microplate containing (i) a medium that induces either the yeast-to-hypha transition (in wild type cells) or the yeast-to-pseudohypha transition (in a conditional pseudohyphal mutant strain) and (ii) varying concentrations of BH3I-1 (typically 0, 10, 30, 50, 100 and 200 μM BH3I-1). The plates are incubated for up to six hours at 37° C. (to test for the hyphal transition) or up to 24 hours 30° C. (to test for the pseudohyphal transition). The transition to filamentous growth (or lack thereof) is monitored in the optical microplates directly with a Nikon TE200 inverted microscope.
# (§2) C. albicans SC3514 was used as the “wild type” strain to monitor the yeast-to-hypha transition. A “conditional pseudohyphal mutant” strain was used to monitor the yeast-to-pseudohypha transition. The conditional strain harbors deletions of both native GRR1 alleles plus an introduced wild type copy of GRR1 under the control of the regulatable MET3 promoter. Deletion of GRR1 was previously found to cause pseudohyphal growth.
# (§3) Standard yeast growth media were used for these experiments. To maintain wild type cells in the yeast-form, cells were grown in YPD medium (1% Yeast Extract, 2% Peptone and 2% Dextrose) at 30° C. To induce hyphal growth in the wild type strain, cells were transferred to Spider medium (1% Nutrient broth, 1% mannitol, […]) at 37° C. or to Lee's medium (0.5% (NH4)SO4, 0.02% MgSO4, 0.5% NaCl, 1.25% glucose, supplemented with alanine, leucine, lysine, ornithine, phenylalanine threonine and biotin) at 37° C. To maintain the conditional pseudohyphal mutant strain in the yeast-form, cells were grown in YNB medium (Yeast Nitrogen Base, ammonium sulfate, succinic acid supplemented with the appropriate amino acids) at 30° C. […]
# [2] = test system: C. albicans SC3514 (wild type) yeast-to-hypha transition; assay: Inhibition of yeast-to-hypha transition in optical microplates, monitored by microscopy; assay type: cell-based, Candida albicans
# Text: as §1, §2, §3
smiles,measurement,setting,value
"CC(C)C(C(=O)O)N1C(=O)C(=Cc2ccc(Br)cc2)SC1=S (stereo not drawn) [BH3I-1, 5-(p-Bromobenzylidine)-α-isopropyl-4-oxo-2-thioxo-3-thiozolidineacetic acid]",yeast-to-pseudohypha transition of treated cells,[1]; conditional pseudohyphal mutant transferred from YNB medium to YNB plus methionine/cysteine medium,failed to undergo the yeast-to-pseudohypha transition
same,MIC for the yeast-to-pseudohypha transition,"[1]; conditional pseudohyphal mutant, YNB plus methionine/cysteine medium, 30° C.",100 µM
same,growth of treated cells in pseudohyphal-inducing medium,"[1]; conditional pseudohyphal mutant, pseudohyphal-inducing medium",continued to divide as yeast cells
same,minimum inhibitory concentration (MIC) for the yeast-to-hypha transition,"[2]; wild type SC3514, both hyphal-inducing media (Spider medium, Lee's medium), 37° C.",50 to 100 µM
same,growth of treated cells in hyphal-inducing media,"[2]; wild type SC3514, hyphal-inducing media",continued to divide as yeast cells
same,yeast-to-hypha transition of treated cells,[2]; wild type SC3514 transferred from YPD medium to Spider medium or Lee's medium,failed to undergo the yeast-to-hypha transition
